Laboratory results published in the NIST ThermoML archive (doi:10.1016/j.jct.2006.10.016).
± gives the expanded uncertainty stated by the source.

Assay: xn = mol fraction of the nth substance listed
Settings: 101 kPa, Liquid

C[S+](C)[O-] [dimethyl sulfoxide] + CC(C)O
Settings	mass density, 303.15 K [kg/m3]	mass density, 308.15 K [kg/m3]	mass density, 313.15 K [kg/m3]	mass density, 318.15 K [kg/m3]	mass density, 323.15 K [kg/m3]	viscosity, 303.15 K [mPa·s]	viscosity, 308.15 K [mPa·s]	viscosity, 313.15 K [mPa·s]	viscosity, 318.15 K [mPa·s]	viscosity, 323.15 K [mPa·s]
x1 = 0.1001	806.4 ± 2	802.2 ± 2.1	798.2 ± 2.2	793.2 ± 2.3	787.9 ± 2.4	1.525 ± 0.069	1.352 ± 0.062	1.2 ± 0.056	1.078 ± 0.051	0.9656 ± 0.046
x1 = 0.2011	834.9 ± 2.1	830.4 ± 2.2	826 ± 2.3	820.7 ± 2.4	815.3 ± 2.5	1.391 ± 0.064	1.246 ± 0.058	1.118 ± 0.053	1.01 ± 0.048	0.9102 ± 0.044
x1 = 0.3005	865 ± 2.2	860.4 ± 2.3	856.3 ± 2.4	850.6 ± 2.5	845.2 ± 2.6	1.306 ± 0.06	1.18 ± 0.055	1.078 ± 0.051	0.9836 ± 0.047	0.8887 ± 0.043
x1 = 0.4007	895.8 ± 2.3	891 ± 2.4	887.1 ± 2.5	881.3 ± 2.6	875.8 ± 2.7	1.335 ± 0.062	1.209 ± 0.056	1.103 ± 0.052	1.011 ± 0.048	0.9133 ± 0.044
x1 = 0.4994	926.6 ± 2.4	921.6 ± 2.5	917.9 ± 2.6	911.9 ± 2.7	906.5 ± 2.8	1.341 ± 0.062	1.223 ± 0.057	1.124 ± 0.053	1.036 ± 0.049	0.9383 ± 0.045
x1 = 0.601	958.9 ± 2.5	953.7 ± 2.6	950 ± 2.7	943.8 ± 2.8	938.5 ± 2.9	1.396 ± 0.064	1.274 ± 0.059	1.173 ± 0.055	1.08 ± 0.051	0.9843 ± 0.047
x1 = 0.701	991.1 ± 2.6	985.6 ± 2.7	982.2 ± 2.8	975.7 ± 2.9	970.4 ± 3	1.474 ± 0.067	1.343 ± 0.062	1.233 ± 0.057	1.136 ± 0.053	1.041 ± 0.049
x1 = 0.7994	1023.3 ± 2.7	1017.6 ± 2.8	1014.5 ± 2.9	1007.6 ± 3	1002.3 ± 3.1	1.55 ± 0.071	1.41 ± 0.065	1.31 ± 0.061	1.198 ± 0.056	1.108 ± 0.052
x1 = 0.9005	1056.9 ± 2.8	1051 ± 2.9	1048.2 ± 3	1041 ± 3.1	1035.8 ± 3.2	1.671 ± 0.076	1.516 ± 0.069	1.401 ± 0.064	1.285 ± 0.06	1.171 ± 0.055
x1 = 1	1090.7 ± 2.9	1084.7 ± 3	1082.3 ± 3.2	1075.1 ± 3.2	1070 ± 3.4	1.832 ± 0.082	1.67 ± 0.076	1.537 ± 0.07	1.408 ± 0.065	1.289 ± 0.06

C[S+](C)[O-] [dimethyl sulfoxide] + CCCO
Settings	mass density, 303.15 K [kg/m3]	mass density, 308.15 K [kg/m3]	mass density, 313.15 K [kg/m3]	mass density, 318.15 K [kg/m3]	mass density, 323.15 K [kg/m3]	viscosity, 303.15 K [mPa·s]	viscosity, 308.15 K [mPa·s]	viscosity, 313.15 K [mPa·s]	viscosity, 318.15 K [mPa·s]	viscosity, 323.15 K [mPa·s]
x1 = 0.1003	824.3 ± 2.1	820.3 ± 2.2	816.5 ± 2.3	812.7 ± 2.4	808.9 ± 2.5	1.598 ± 0.072	1.436 ± 0.066	1.257 ± 0.058	1.142 ± 0.054	1.034 ± 0.049
x1 = 0.1995	853.1 ± 2.2	848.6 ± 2.3	844.8 ± 2.4	840.8 ± 2.5	836.8 ± 2.6	1.41 ± 0.065	1.278 ± 0.059	1.163 ± 0.055	1.066 ± 0.051	0.9724 ± 0.047
x1 = 0.2999	881.4 ± 2.3	876.6 ± 2.4	873.2 ± 2.5	868.7 ± 2.6	864.8 ± 2.7	1.402 ± 0.064	1.277 ± 0.059	1.173 ± 0.055	1.078 ± 0.051	0.9878 ± 0.047
x1 = 0.3994	910.1 ± 2.4	905.3 ± 2.5	901.7 ± 2.6	897.1 ± 2.7	892.9 ± 2.8	1.393 ± 0.064	1.273 ± 0.059	1.17 ± 0.055	1.084 ± 0.051	0.9964 ± 0.048
x1 = 0.5	938.7 ± 2.5	933.4 ± 2.6	929.7 ± 2.7	924.3 ± 2.8	919.7 ± 2.9	1.425 ± 0.065	1.31 ± 0.061	1.207 ± 0.056	1.11 ± 0.052	1.017 ± 0.049
x1 = 0.5995	968.1 ± 2.5	962.5 ± 2.6	958.8 ± 2.8	953.2 ± 2.9	948.6 ± 3	1.492 ± 0.068	1.357 ± 0.063	1.246 ± 0.058	1.148 ± 0.054	1.07 ± 0.051
x1 = 0.7002	998.2 ± 2.6	992.2 ± 2.7	988.8 ± 2.9	982.3 ± 3	977.6 ± 3.1	1.532 ± 0.07	1.4 ± 0.064	1.29 ± 0.06	1.201 ± 0.056	1.1 ± 0.052
x1 = 0.7998	1027.6 ± 2.7	1021.6 ± 2.8	1017.5 ± 2.9	1011 ± 3	1006.1 ± 3.1	1.593 ± 0.072	1.452 ± 0.067	1.335 ± 0.062	1.247 ± 0.058	1.14 ± 0.054
x1 = 0.9004	1059.4 ± 2.8	1053 ± 2.9	1050 ± 3	1043 ± 3.1	1037.6 ± 3.2	1.728 ± 0.078	1.629 ± 0.074	1.493 ± 0.068	1.361 ± 0.063	1.219 ± 0.057
x1 = 1	1090.7 ± 2.9	1084.7 ± 3	1082.3 ± 3.2	1075.1 ± 3.2	1070 ± 3.4	1.832 ± 0.082	1.67 ± 0.076	1.537 ± 0.07	1.408 ± 0.065	1.289 ± 0.06

C[S+](C)[O-] [dimethyl sulfoxide] + CCO
Settings	mass density, 303.15 K [kg/m3]	mass density, 308.15 K [kg/m3]	mass density, 313.15 K [kg/m3]	mass density, 318.15 K [kg/m3]	mass density, 323.15 K [kg/m3]	viscosity, 303.15 K [mPa·s]	viscosity, 308.15 K [mPa·s]	viscosity, 313.15 K [mPa·s]	viscosity, 318.15 K [mPa·s]	viscosity, 323.15 K [mPa·s]
x1 = 0.1008	836 ± 2.1	831.6 ± 2.2	827.6 ± 2.3	822.8 ± 2.4	818.1 ± 2.5	1.244 ± 0.058	1.122 ± 0.053	1.025 ± 0.049	0.9261 ± 0.045	0.8551 ± 0.042
x1 = 0.2004	870.1 ± 2.2	865.6 ± 2.3	861.7 ± 2.4	856.7 ± 2.5	852.1 ± 2.7	1.205 ± 0.056	1.096 ± 0.052	0.9964 ± 0.048	0.9126 ± 0.044	0.8356 ± 0.041
x1 = 0.2994	902.4 ± 2.3	897.7 ± 2.4	894 ± 2.5	888.8 ± 2.7	884 ± 2.8	1.209 ± 0.056	1.098 ± 0.052	1.01 ± 0.048	0.9262 ± 0.045	0.8544 ± 0.042
x1 = 0.4005	933.9 ± 2.4	929 ± 2.5	925.6 ± 2.6	920.1 ± 2.8	915.3 ± 2.9	1.237 ± 0.058	1.143 ± 0.054	1.038 ± 0.049	0.961 ± 0.046	0.8876 ± 0.043
x1 = 0.4995	963.3 ± 2.5	958.2 ± 2.6	955 ± 2.7	949.2 ± 2.8	944.4 ± 2.9	1.282 ± 0.06	1.179 ± 0.055	1.086 ± 0.051	1.004 ± 0.048	0.9264 ± 0.045
x1 = 0.6005	991.6 ± 2.6	986.3 ± 2.7	983.4 ± 2.8	977.4 ± 2.9	972.4 ± 3	1.361 ± 0.063	1.248 ± 0.058	1.154 ± 0.054	1.065 ± 0.05	0.9847 ± 0.047
x1 = 0.7012	1018.4 ± 2.7	1013 ± 2.8	1010.3 ± 2.9	1004.1 ± 3	999.3 ± 3.1	1.464 ± 0.067	1.34 ± 0.062	1.234 ± 0.058	1.139 ± 0.053	1.05 ± 0.05
x1 = 0.8011	1043.6 ± 2.8	1038.3 ± 2.9	1035.9 ± 3	1029.5 ± 3.1	1024.7 ± 3.2	1.557 ± 0.071	1.435 ± 0.066	1.323 ± 0.061	1.217 ± 0.057	1.125 ± 0.053
x1 = 0.8999	1067.5 ± 2.9	1062.1 ± 3	1059.8 ± 3.1	1053.1 ± 3.2	1048.4 ± 3.3	1.658 ± 0.075	1.517 ± 0.069	1.393 ± 0.064	1.289 ± 0.06	1.183 ± 0.055
x1 = 1	1090.7 ± 2.9	1084.7 ± 3	1082.3 ± 3.2	1075.1 ± 3.2	1070 ± 3.4	1.832 ± 0.082	1.67 ± 0.076	1.537 ± 0.07	1.408 ± 0.065	1.289 ± 0.06
